Assays:
C57BL/6J mice [1] = assay: Experiment 3: low-fat diet with selenomethionine, inguinal and perigonadal fat pad weight; assay type: in vivo, mouse; details: male mice, selenomethionine 0.00015% of food, low-fat diet (10% of calories from fat), 8 week interval, p<0.01; even more effectively than methionine restriction
Protocol: (§1) All animal studies conducted were approved by the Institutional Animal Care and Use Committee (IACUC) of the Orentreich Foundation for the Advancement of Science, Inc. (Permit Number: 0511 MB). C57BL/6J mice (stock number 000664) were purchased from the Jackson Laboratories (Bar Harbor, Me.) and housed in a conventional animal facility maintained at 20±2° C., 50±10% relative humidity, with a 12 hr/12 hr light/dark photoperiod. Food and water were provided ad libitum. Upon arrival, mice were acclimatized for up to one week and fed Purina Lab Chow 5001 (Ralston Purina, Co.; St. Louis, Mo.).
In this experiment, male mice were divided into three groups, with each group being fed a separate low-fat diet ad libitum for 8 weeks. The first group represented the control-fed group (CF group) and was fed a low-fat base diet that included 0.86% methionine as a percentage of total food. The second group was fed a methionine-restricted diet (MR group) where the amount of methionine was restricted to 0.12% of total consumed. The third group was fed the base diet supplemented with selenomethionine (SMS group) in an amount representing 0.00015% of total food consumed.
FIGS. 9A and 9B depict the reduced white adipose tissue accumulation of the SMS group as compared with the MR group and the CF group. […]

C57BL/6J mice [2] = assay: Experiment 1: high-fat diet with selenium compounds, body mass, fat pad and liver mass; assay type: in vivo, mouse
Protocol: as §1
At the beginning of the experiment, the mice were divided into 5 groups with each group being fed one of five isocaloric (5.3 kcal/gm) high-fat diets ad libitum for several weeks. Each high-fat diet comprising a base of 12% kcal protein, 31% kcal carbohydrate, and 57% kcal fat. The first group's diet was the control-fed diet and included the base and methionine in an amount that represented about 0.86% of the weight of the food (sometimes referred to as “control group,” “control-fed group,” or “group 1”). The second group's diet was the methionine-restricted group where the base-diet was restricted to 0.12% methionine as a percentage of the total weight of the food (sometimes referred to as “methionine-restricted group” or “group 2”). The third group was fed the base diet containing 0.86% methionine, which was supplemented with sodium selenite in an amount representing 0.0073% of the total weight of the food (sometimes referred to as “sodium selenite-supplemented group” or “group 3”). The fourth group was fed the base diet containing 0.86% methionine, supplemented with 0.0036% selenomethionine, as a percentage of the total food weight (sometimes referred to as “group 4”). The fifth group was fed the base diet containing 0.86% methionine as a percentage of the total weight of the food, supplemented with 0.0073% selenomethionine as a percentage of the total weight of the food (sometimes referred to as “group 5”). Amounts of selenium-containing compounds used for this and subsequent experiments were determined from pilot studies aimed at identifying minimal doses that still achieve high efficacy. […] The amount of selenomethionine administered to the animals in the fourth and fifth groups was approximately 1/200 and 1/100 times respectively, of the levels of sulfur-containing amino acids (i.e., methionine and cysteine) present in the subjects' diets.
Body mass and food consumption were monitored once a week for sixteen weeks. Prior to blood collection, animals were fasted for 4 hours to establish a physiological baseline. Blood was then collected from the retro-orbital plexus and processed using EDTA-K2-coated blood collection tubes (Milian Dutscher Group; Geneva, Switzerland). The resulting plasma was frozen and stored at −80° C. until used for analysis. A portion of each blood sample was used for blood glucose determination using an Abbott Freestyle Lite glucometer and glucose strips (Abbott Diabetes Care, Inc.; Alameda, Calif.). At the end of each study, animals were fasted and bled, as described above. The mice were then sacrificed, their overall body condition was assessed, and certain physiological parameters were measured. The inguinal and perigonadal fat pads, as well as liver of each mouse, were harvested by surgical resection, weighed, flash frozen, and stored at −80° C.

[3] = female mice, high-fat diet, untreated = 100%, sodium selenite 0.0073% of food, selenomethionine 0.0036% or 0.0073% (which not stated)
[4] = male mice, high-fat diet, untreated = 100%, sodium selenite 0.0073% of food, selenomethionine 0.0036% or 0.0073% (which not stated)

## C[Se]CC[C@H](N)C(=O)O [Selenomethionine, selenomethionine]
C57BL/6J mice [1]
  accumulation of inguinal and perigonadal adipose tissue (FIGS. 9A, 9B): robust protection against the accumulation of adipose tissue
C57BL/6J mice [2]; [3]
  Inguinal Fat Mass, Females: 48%
  Perigonadal Fat Mass, Females: 55%
C57BL/6J mice [2]; female mice, high-fat diet, untreated = 100%, sodium selenite 0.0073% of food, selenomethionine 0.0036% or 0.0073% (which not stated), 16 weeks
  Total Body Mass, Females: 79%
C57BL/6J mice [2]; [4]
  Inguinal Fat Mass, Males: 54%
  Perigonadal Fat Mass, Males: 60%
C57BL/6J mice [2]; male mice, high-fat diet, untreated = 100%, sodium selenite 0.0073% of food, selenomethionine 0.0036% or 0.0073% (which not stated), 16 weeks
  Total Body Mass, Males: 84%
C57BL/6J mice [2]; male mice, selenomethionine 0.0036% and 0.0073% of food, high-fat diet, vs control-fed littermates
  overall body mass / diet-induced obesity: dose-dependent protection against diet-induced obesity
C57BL/6J mice [2]; male mice, selenomethionine-supplemented high-fat diet
  inguinal and perigonadal adipose tissue: less inguinal and perigonadal adipose tissue
C57BL/6J mice [2]; selenomethionine-supplemented vs control animals, high-fat diet
  liver mass: not significantly different
